Patent US20180185302A1, “METHODS FOR DOWNREGULATING APOBEC3B” (Regents of the University of Minnesota, priority 2015, published 2018)
Entries after “also recorded” stand apart in the source; their conditions may differ. Residues, ends and D or L forms follow the SMILES beside them. *: point of attachment. Cbz = O=C(OCc1ccccc1)*

Legend:
APOBEC3B [1] = assay: inhibitor pretreatment before PMA-induced APOBEC3B upregulation in MCF10A cells (RT-qPCR); format: cell-based, human; settings: for suppression of PMA-induced APOBEC3B mRNA induction: 30-minute pretreatment with inhibitor, then PMA 25 ng/mL six hours
Method: PMA is a well-known agonist of PKC, but it also affects other cellular processes. To determine whether APOBEC3B induction by PMA occurs through PKC signal transduction or an alternative mechanism, we leveraged a panel of existing PKC inhibitors that each vary with respect to class selectivity. MCF10A cells were pre-treated for 30 minutes with varying concentrations of the pan-PKC inhibitor Gö6983 (Gschwendt et al., FEBS Lett. 392:77-80, 1996) and then treated for six hours with PMA (25 ng/mL). […] As additional controls, MCF10A cells were pretreated in parallel with the phosphoinositol 3 kinase (PI3K) inhibitor, LY294002, and the mitogen-activated protein kinase kinase (MEK) inhibitor, U0126, prior to PMA induction (FIGS. 2B and 2C).
(§1) For induction experiments, 2.5×10^5 cells were plated in a 6-well plate 1 day prior to drug treatment. PMA was then added to the media and incubated at 37° C. with 5% CO2 for six hours unless otherwise indicated. Cells were harvested, RNA was extracted, and RT-qPCR was performed as previously reported (Refsland et al. 2010, Nucleic Acids Res 38:4274-4284). For experiments utilizing inhibitors, cells were pretreated with inhibitors 30 minutes prior to PMA induction (25 ng/mL). PMA (Thermo Fisher Scientific, Inc., Waltham, Mass.), cyclohexamide (Acros Organics, Thermo Fisher Scientific, Inc., Waltham, Mass.), Gö6983 (Cayman Chemical co., Ann Arbor, Mich.), LY294002 (EMD Chemicals, Merck KGaA, Darmstadt, Germany), U0126 (EMD Chemicals, Merck KGaA, Darmstadt, Germany), AEB071 (Medchemexpress, Monmouth Junction, N.J.), Gö6976 (Enzo Life Sciences, Inc., Farmingdale, N.Y.), BAY 11-7082 (R&D Systems, INc., Minneapolis, Minn.), and MG132 (Thermo Fisher Scientific, Inc., Waltham, Mass.) were stored as recommended. NIKi/Compound 31 was synthesized as described (Li et al., 2013, Bioorganic & Medicinal Chemistry Letters 23:1238-1244).

MCF10A cells = assay: morphology and viability of MCF10A cells under inhibitor; format: cell-based, human; settings: low concentrations of Gö6983 (5 μM range), data not shown
Method: PMA is a well-known agonist of PKC, but it also affects other cellular processes. To determine whether APOBEC3B induction by PMA occurs through PKC signal transduction or an alternative mechanism, we leveraged a panel of existing PKC inhibitors that each vary with respect to class selectivity. MCF10A cells were pre-treated for 30 minutes with varying concentrations of the pan-PKC inhibitor Gö6983 (Gschwendt et al., FEBS Lett. 392:77-80, 1996) and then treated for six hours with PMA (25 ng/mL). […] APOBEC3B was suppressed to background levels with 5 μM Gö6983, as well as higher concentrations (FIG. 2A). […] As additional controls, MCF10A cells were pretreated in parallel with the phosphoinositol 3 kinase (PI3K) inhibitor, LY294002, and the mitogen-activated protein kinase kinase (MEK) inhibitor, U0126, prior to PMA induction (FIGS. 2B and 2C).

[2] = system: IKKβ (canonical) over IKKα (non-canonical); settings: reported in vitro IC50 values (Podolin et al., 2005); cited from earlier work
TNFα = TNFα mRNA expression in PMA-treated MCF10A cells (RT-qPCR); format: cell-based, human; settings: titration of inhibitor, compared with APOBEC3B inhibition
Method: FIG. 3. Non-canonical NFκB signaling is responsible for APOBEC3B upregulation by PMA. […] MCF10A cells were treated with PMA following a 30-minute pretreatment with the indicated concentrations of each inhibitor. APOBEC3B mRNA expression is reported as the mean of three independent RT-qPCR reactions normalized to TBP (error bars report SD from triplicate assays). (C) Histogram depicting NFκB subunit mRNA levels in MCF10A cells treated with PMA or vehicle control. Expression was determined by RNA-seq and is reported as FKPM and normalized to TBP. […] MCF10A cells were treated with PMA following treatment with varying concentrations of TPCA-1. TNFα (light) and APOBEC3B (dark) mRNA levels are reported as the mean of three independent RT-qPCR reactions normalized to TBP (error bars report SD from triplicate assays). The dotted lines denote previously reported in vitro IC50 values for IKKα and IKKβ inhibition by TPCA-1 (Podolin et al., 2005, J Pharmacol Exp Ther. 312:373-381). (E) Histogram showing the kinetics of NFKBIA upregulation PMA. MCF10A cells were treated with PMA for the indicated times and mRNA values were quantified as in FIG. 3A. […]
Canonical signaling is known to require IKKβ, whereas non-canonical NFκB signaling is strictly dependent on IKKα-catalyzed phosphorylation of p100. […] As an additional control, TNFα, which is regulated by the canonical pathway, was analyzed.

APOBEC3B [3] = assay: PMA induction of APOBEC3B mRNA in MCF10A cells (RT-qPCR); format: cell-based, human; settings: 10 μg/mL cyclohexamide with PMA
Method: A panel of immortalized normal human epithelial cells lines and breast cancer cell lines was treated with PMA or equal amounts of DMSO as a negative control, and previously validated reverse transcription quantitative PCR (RT-qPCR) assays were used to measure mRNA levels of all eleven human APOBEC family members. APOBEC3B mRNA was induced specifically by PMA treatment of several lines including the immortalized normal breast epithelial cell line MCF10A (FIG. 1A and FIG. 6). Under standard cell culture conditions, MCF10A expresses low levels of APOBEC3B and APOBEC3F, even lower levels of APOBEC3G and APOBEC3H, high levels of APOBEC3C, and undetectable levels of all other APOBEC family members.
APOBEC3B was induced with as little as 1 ng/mL PMA, and its induction was dose responsive and near maximal at 25 ng/mL PMA (FIG. 1B, histogram). APOBEC3B mRNA levels correlated with a rise in steady-state protein levels as measured by immunoblotting with a rabbit anti-APOBEC3B monoclonal antibody (described in U.S. Provisional Patent Application No. 62/186,109. filed Jun. 29, 2015) and with enzymatic activity as measured by a gel-based single-stranded DNA cytosine deamination assay (FIG. 1B). […] APOBEC3B protein and activity levels lagged shortly behind mRNA levels and persisted through the duration of the time course (FIG. 1C, immunoblot and polyacrylamide gel). APOBEC3B upregulation may be a direct result of signal transduction as the kinetics of upregulation were not affected by simultaneously treating cells with the protein translation inhibitor cyclohexamide (FIG. 1D).
as §1

MCF-7 xenograft tumor = assay: MCF-7 xenograft model for tamoxifen resistance; format: in vivo, mice
Description: Human cancer cell lines, such as those listed above, and many others, upon engraftment into mice (e.g., subcutaneously, intraperotoneally, or otherwise), provide model systems for human tumor evolution, heterogeneity, and drug resistance. For instance, the estrogen-receptor positive breast cancer cell line MCF7L is a model for endocrine therapy and resistance.
The MCF-7 system may be adapted for evaluating APOBEC3 mutagenesis and drug resistance by creating derivative lines expressing low APOBEC3B (e.g., shRNA transduced) and high APOBEC3B (empty vector transduced) using lentivirus transduction followed by selection with 1 μg/ml puromycin for one week (Burns et al., 2013, Nature 494:366-370) and determine whether endogenous APOBEC3B contributes to the development of tamoxifen resistance. Five-million engineered cells are injected subcutaneously (xenografted) into athymic/ovariectomized nude-Foxnlnu (4-5 weeks old, The Jackson Laboratory, Bar Harbor, Me.). Each animal's drinking water is supplemented with 1 μM estradiol to provide continuous hormonal stimulation. The xenografted cells form large tumors within 150 days post-engraftment and depleting endogenous APOBEC3B causes a modest delay in tumor growth (dark square versus dark circle symbols in FIG. 8).

For `Cc1ccc(S(=O)(=O)/C=C/C#N)cc1` [BAY 11-7082], the “suppression of PMA-induced APOBEC3B mRNA induction” value (“suppression” for short) (APOBEC3B [1]) was “dose responsive inhibition; also recorded: strong dose-responsive drops”.

For `CN(C)CCCn1cc(C2=C(c3c[nH]c4ccccc34)C(=O)NC2=O)c2ccccc21` [BIM-1, bisindolylmaleimide-1], the “suppression” value (APOBEC3B [1]) was “inhibited; also recorded: nearly identical dose dependent suppression”.

In the case of `Cn1c2ccccc2c2c3c(c4c5ccccc5n(CCC#N)c4c21)CNC3=O` [Gö6976], the “suppression” value (APOBEC3B [1]) was “inhibited”.

In the case of `COc1ccc2c(c1)c(C1=C(c3c[nH]c4ccccc34)C(=O)NC1=O)cn2CCCN(C)C` [Gö6983], the “morphological defects or viability issues” value (MCF10A cells) was “No morphological defects or viability issues”, the “suppression” value (APOBEC3B [1]) was “inhibited; also recorded: dose responsive suppression” and the “concentration that suppressed APOBEC3B to background levels” value (APOBEC3B [1]; 30-minute pretreatment, PMA 25 ng/mL six hours) was 5 µM.

For `CC(C)C[C@@H](C=O)NC(=O)[C@H](CC(C)C)NC(=O)[C@H](CC(C)C)NC(=O)OCc1ccccc1` [MG132] (Cbz-Leu-Leu-Leu-aldehyde), the “suppression” value (APOBEC3B [1]) was “dose responsive inhibition; also recorded: decreased in a dose dependent manner”.

For `NC(=O)Nc1sc(-c2ccc(F)cc2)cc1C(N)=O` [TPCA-1], the “selectivity for IKKβ (canonical) over IKKα (non-canonical)” value [2] is given as 22 fold, the “inhibition of TNFα expression” value (TNFα) is given as “inhibited by much lower concentrations” and the “suppression” value (APOBEC3B [1]) is given as “near the IC50 for IKKα, not IKKβ; also recorded: inhibited closer to the reported IC50 of IKKα”.

With `N#CC(=C(/N)Sc1ccccc1N)/C(C#N)=C(\N)Sc1ccccc1N` [U0126] the “suppression” value (APOBEC3B [1]) was “not and no suppression”.

With `C[C@@H]1C[C@@H]([C@H](O)CC2CC(=O)NC(=O)C2)C(=O)[C@@H](C)C1` [cyclohexamide] the “effect on kinetics of PMA-induced APOBEC3B upregulation” value (APOBEC3B [3]) was “not affected”.

In the case of `CC/C(=C(\c1ccccc1)c1ccc(OCCN(C)C)cc1)c1ccccc1` [tamoxifen], the “tumor growth of MCF-7 derivative lines” value (MCF-7 xenograft tumor; 500 μg 5 days/week subcutaneous injection, APOBEC3B high and low lines, mice) was “arrested the growth of both derivative lines for several months”, the “development of resistance, cells expressing high levels of APOBEC3B” value (MCF-7 xenograft tumor; 500 μg 5 days/week subcutaneous, year-long experiment) was “invariably developed resistance” and the “development of resistance, APOBEC3B low cell masses” value (MCF-7 xenograft tumor; 500 μg 5 days/week subcutaneous, year-long experiment, n=5 animals/condition) was “only one of the APOBEC3B low cell masses became resistant”.
